Peptide text beside a SMILES is read from it.
Assays:
[1] = test system: CD4 T cells co-cultured with autologous DCs from PBMCs; format: cell-based, human; details: positive = Stimulation Index ≥1.5-fold above baseline, 5 µg/mL peptide
[2] = target: T1, HLA-DRB1*1101 (Homo sapiens, UniProt P01903+P01911, A100R/A169T/A87E/I96F/K41T/L162R/M171V/P40S/Q125H/Q178H/Q39Y/Q99D/R42S/S66Y/T262R/V115G/W38E); experiment: In vitro class II HLA binding competition assay; details: competition with fluorescent-labeled reference peptide, class II HLA monomers, 24-hours, test peptide 100,000 nM to 100 nM, time-resolved fluorescence
T1 construct: purchased
Procedure: (§1) EpiVax conducted in vitro quantification of peptide-HLA binding affinity utilizing a competition assay format per the methodology described in ([35]). Briefly, a fluorescent-labeled, high-binding reference peptide and titrating concentrations of test peptide were incubated in a 96-well plate format with limiting concentrations of class II HLA monomers in aqueous buffer for 24-hours. Post incubation, the mixtures were moved to a 96-well plate coated with anti-HLA-DR antibody to capture HLA-peptide complexes. Time-resolved fluorescence measurement of the bound labeled reference peptide complex present in each mixture were detected with a europium-linked probe via fluorescent spectrophotometry using a SpectraMax M5 system. HLA binding affinity of each test peptide was expressed as the percent inhibition of reference peptide binding. Percent inhibition values (across the test peptide titration range) were used to calculate the half maximal inhibitory concentration (IC50) of each test peptide. For these studies, test peptides were assessed using a range of final concentrations from 100,000 nM to 100 nM and all peptides were reconstituted in dimethyl sulfoxide (DMSO).

[3] = target: T2, HLA-DRB1*0401 (Homo sapiens, UniProt P01903+P01911, A100K/A169T/F76Y/I96L/K127E/L162R/M171V/N62H/P40V/Q125Y/R42H/S133A/S149N/S66Y/V115G/V209L/W38E); experiment: In vitro class II HLA binding competition assay; details: competition with fluorescent-labeled reference peptide, class II HLA monomers, 24-hours, test peptide 100,000 nM to 100 nM, time-resolved fluorescence; read-out: IC50, DRB1*0401
T2 construct: purchased
Procedure: as §1

[4] = target: HLA-DRB1*0701 (Homo sapiens, UniProt P01903+P01911, A100R/A102G/A103Q/D57E/D86V/E43K/F76Y/K127E/L162R/M171V/P40G/Q125H/Q99D/R33Q/R42Y/R54Q/S133A/S66F/T210M/V115G/Y107V/Y59L/Y89S); experiment: In vitro class II HLA binding competition assay; details: competition with fluorescent-labeled reference peptide, class II HLA monomers, 24-hours, test peptide 100,000 nM to 100 nM, time-resolved fluorescence; read-out: IC50, DRB1*0701
Procedure: as §1

[5] = target: HLA-DRB1*1301 (Homo sapiens, UniProt P01903+P01911, A100E/A169T/K41T/L162R/M171V/P40S/Q125H/Q178H/Q39Y/Q99D/R42S/S66N/T262R/W38E/Y61H); experiment: In vitro class II HLA binding competition assay; details: competition with fluorescent-labeled reference peptide, class II HLA monomers, 24-hours, test peptide 100,000 nM to 100 nM, time-resolved fluorescence
Procedure: as §1

[6] = target: HLA-DRB1*0301 (Homo sapiens, UniProt P01903+P01911, A100K/A102G/A103R/A169T/F55Y/I96L/K41T/L162R/M171V/P40S/Q125H/Q178H/Q39Y/R42S/S66N/T106N/T262R/W38E/Y61H); experiment: In vitro class II HLA binding competition assay; details: competition with fluorescent-labeled reference peptide, class II HLA monomers, 24-hours, test peptide 100,000 nM to 100 nM, time-resolved fluorescence
Procedure: as §1

[7] = target: T3, HLA-DRB1*1501 (Homo sapiens, UniProt P01903+P01911); experiment: In vitro class II HLA binding competition assay; details: competition with fluorescent-labeled reference peptide, class II HLA monomers, 24-hours, test peptide 100,000 nM to 100 nM, time-resolved fluorescence; read-out: IC50, DRB1*1501
T3 construct: purchased
Procedure: as §1

[8] = target: T4, HLA-DRB1*0101 (Homo sapiens, UniProt P01903+P01911, A100R/D57E/F55L/F60I/F76Y/I96L/L162R/M171V/P40L/Q125E/R42F/V115G/Y59C); experiment: In vitro class II HLA binding competition assay; details: competition with fluorescent-labeled reference peptide, class II HLA monomers, 24-hours, test peptide 100,000 nM to 100 nM, time-resolved fluorescence
T4 construct: purchased
Procedure: as §1

CC[C@H](C)[C@H](NC(=O)[C@H](CO)NC(=O)[C@H](CO)NC(=O)[C@H](CC(N)=O)NC(=O)[C@@H](NC(=O)[C@@H](NC(=O)[C@H](CC(N)=O)NC(=O)[C@H](Cc1ccccc1)NC(=O)[C@@H](NC(=O)[C@H](CO)NC(=O)[C@H](CO)NC(=O)[C@@H](N)CCCCN)C(C)C)C(C)C)C(C)C)C(=O)NCC(=O)N[C@@H](CC(C)C)C(=O)N[C@H](C(=O)N[C@@H](CCSC)C(=O)N[C@H](C(=O)N[C@@H](CC(C)C)C(=O)N[C@@H](CO)C(N)=O)C(C)C)[C@@H](C)CC [Cluster C4] (H-KSSVFNVVNSSIGLIMVLS-NH2)
Percentage of donors demonstrating IFN-γ responses, DR1 ([1]; DR1 donors N=5, ICCS after 14-day co-culture): 20%
Percentage of donors demonstrating IL-2 responses, DR1 ([1]; DR1 donors N=5, ICCS): 0%
Percentage of donors demonstrating IL-4 responses, DR1 ([1]; DR1 donors N=5, ICCS): 0%
Percentage of donors demonstrating IL-10 responses, DR1 ([1]; DR1 donors N=5, ICCS): 20%
Percentage of donors demonstrating TNF-α responses, DR1 ([1]; DR1 donors N=5, ICCS): 0%
Percentage of donors demonstrating IFN-γ responses, DR3 ([1]; DR3 donors N=6, ICCS after 14-day co-culture): 17%
Percentage of donors demonstrating IL-2 responses, DR3 ([1]; DR3 donors N=6, ICCS): 0%
Percentage of donors demonstrating IL-4 responses, DR3 ([1]; DR3 donors N=6, ICCS): 0%
Percentage of donors demonstrating IL-10 responses, DR3 ([1]; DR3 donors N=6, ICCS): 0%
Percentage of donors demonstrating TNF-α responses, DR3 ([1]; DR3 donors N=6, ICCS): 0%
Percentage of donors demonstrating IFN-γ responses, DR4 ([1]; DR4 donors N=10, ICCS after 14-day co-culture): 30%
Percentage of donors demonstrating IL-2 responses, DR4 ([1]; DR4 donors N=10, ICCS): 0%
Percentage of donors demonstrating IL-4 responses, DR4 ([1]; DR4 donors N=10, ICCS): 40%
Percentage of donors demonstrating IL-10 responses, DR4 ([1]; DR4 donors N=10, ICCS): 20%
Percentage of donors demonstrating TNF-α responses, DR4 ([1]; DR4 donors N=10, ICCS): 10%
Percentage of donors demonstrating IFN-γ responses, DR7 ([1]; DR7 donors N=4, ICCS after 14-day co-culture): 0%
Percentage of donors demonstrating IL-2 responses, DR7 ([1]; DR7 donors N=4, ICCS): 0%
Percentage of donors demonstrating IL-4 responses, DR7 ([1]; DR7 donors N=4, ICCS): 25%
Percentage of donors demonstrating IL-10 responses, DR7 ([1]; DR7 donors N=4, ICCS): 0%
Percentage of donors demonstrating TNF-α responses, DR7 ([1]; DR7 donors N=4, ICCS): 0%
Percentage of donors demonstrating IFN-γ responses, DR8 ([1]; DR8 donors N=4, ICCS after 14-day co-culture): 25%
Percentage of donors demonstrating IL-2 responses, DR8 ([1]; DR8 donors N=4, ICCS): 25%
Percentage of donors demonstrating IL-4 responses, DR8 ([1]; DR8 donors N=4, ICCS): 25%
Percentage of donors demonstrating IL-10 responses, DR8 ([1]; DR8 donors N=4, ICCS): 25%
Percentage of donors demonstrating TNF-α responses, DR8 ([1]; DR8 donors N=4, ICCS): 25%
Percentage of donors demonstrating IFN-γ responses, DR9 ([1]; DR9 donors N=4, ICCS after 14-day co-culture): 0%
Percentage of donors demonstrating IL-2 responses, DR9 ([1]; DR9 donors N=4, ICCS): 25%
Percentage of donors demonstrating IL-4 responses, DR9 ([1]; DR9 donors N=4, ICCS): 25%
Percentage of donors demonstrating IL-10 responses, DR9 ([1]; DR9 donors N=4, ICCS): 0%
Percentage of donors demonstrating TNF-α responses, DR9 ([1]; DR9 donors N=4, ICCS): 25%
Percentage of donors demonstrating IFN-γ responses, DR11 ([1]; DR11 donors N=4, ICCS after 14-day co-culture): 50%
Percentage of donors demonstrating IL-2 responses, DR11 ([1]; DR11 donors N=4, ICCS): 25%
Percentage of donors demonstrating IL-4 responses, DR11 ([1]; DR11 donors N=4, ICCS): 0%
Percentage of donors demonstrating IL-10 responses, DR11 ([1]; DR11 donors N=4, ICCS): 0%
Percentage of donors demonstrating TNF-α responses, DR11 ([1]; DR11 donors N=4, ICCS): 25%
Percentage of donors demonstrating IFN-γ responses, DR13 ([1]; DR13 donors N=7, ICCS after 14-day co-culture): 29%
Percentage of donors demonstrating IL-2 responses, DR13 ([1]; DR13 donors N=7, ICCS): 43%
Percentage of donors demonstrating IL-4 responses, DR13 ([1]; DR13 donors N=7, ICCS): 14%
Percentage of donors demonstrating IL-10 responses, DR13 ([1]; DR13 donors N=7, ICCS): 0%
Percentage of donors demonstrating TNF-α responses, DR13 ([1]; DR13 donors N=7, ICCS): 43%
Percentage of donors demonstrating IFN-γ responses, DR15 ([1]; DR15 donors N=7, ICCS after 14-day co-culture): 0%
Percentage of donors demonstrating IL-2 responses, DR15 ([1]; DR15 donors N=7, ICCS): 0%
Percentage of donors demonstrating IL-4 responses, DR15 ([1]; DR15 donors N=7, ICCS): 29%
Percentage of donors demonstrating IL-10 responses, DR15 ([1]; DR15 donors N=7, ICCS): 0%
Percentage of donors demonstrating TNF-α responses, DR15 ([1]; DR15 donors N=7, ICCS): 14%
IC50 [2]: 1040 nM
IC50 [3]: 1690 nM
IC50 [4]: 2070 nM
IC50 [5]: 1200 nM
IC50 [6]: 1100 nM
IC50 [7]: 12300 nM
IC50 [8]: 526 nM
